Experimental findings from patent publication US12329823B2 (The Scripps Research Institute, priority 2021, dated 2025) are described below.

Where two headings read alike, the source gives them in different places.

For one data set, the target named is T1, human GIPR (Homo sapiens, UniProt P48546).
T1 construct: expressed in transfected cells; host or cells: HEK293 (CRE-HEK293, HEK293-GIPR-CRE)
T1 sequence (P48546 22-466): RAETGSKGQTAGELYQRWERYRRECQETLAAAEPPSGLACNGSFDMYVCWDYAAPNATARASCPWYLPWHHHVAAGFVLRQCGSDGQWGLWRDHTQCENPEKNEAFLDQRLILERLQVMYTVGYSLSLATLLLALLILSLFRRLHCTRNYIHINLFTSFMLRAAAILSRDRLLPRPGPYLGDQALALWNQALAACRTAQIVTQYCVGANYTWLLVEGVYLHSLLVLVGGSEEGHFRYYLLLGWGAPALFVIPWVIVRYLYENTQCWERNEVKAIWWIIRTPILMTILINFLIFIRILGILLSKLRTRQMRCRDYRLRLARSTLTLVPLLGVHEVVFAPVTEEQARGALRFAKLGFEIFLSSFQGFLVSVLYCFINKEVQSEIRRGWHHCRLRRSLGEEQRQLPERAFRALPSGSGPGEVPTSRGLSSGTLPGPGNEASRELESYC
In words: In vitro receptor activation reporter assay (CRE-Luc, HEK293-GIPR-CRE cells; receptor-mediated cAMP synthesis). It counts as cell-based.

Data set [1] can be described thus: Plasma stability, 24 h incubation in mouse plasma (LC-MS). It counts as in vitro ADME. As for the experimental part:
(§1) To investigate the stability of the conjugates in mouse, cyno monkey, dog, and human plasma, conjugate mCMD307 was incubated in plasma for 24 h (Table 13). At certain time intervals a sample of plasma was taken and plasma proteins precipitated. Samples were analyzed using LC-MS.

Data set [2] in a line: in vitro. Conditions: monkey, plasma. It counts as in vitro ADME, cyno monkey. The procedure:
as §1

Data set [3] in a line: in vitro. The data set is classed as in vitro ADME. As to conditions: plasma. As for the experimental part:
as §1

Data set [4] is classed as in vivo, mouse. The procedure: […]. Peptide dissolved in PBS (pH 8.2) was administered via i.v. or s.c. route into CD1 mice ([…]). Blood samples were collected at the indicated time points and analyzed by in vitro GLP-1R activity assay. The assay was performed in triplicate. Pharmacokinetic analyses were determined by noncompartmental analysis with WinNonLin.
[…]. It is also noteworthy that although our focus for half-life extension was on the serum-binding ability of the stapled peptide, there may be a combination of effects, for example self-assembly and depoting at the injection site, that led to the delayed onset of Cmax and the extended half-life.
CHOK1 cells stably overexpressed human GLP-1R or GIPR (20 μL of 5000 cells per well) were seeded in a white solid 384 well plate covered with metal lid and incubated overnight. On day 2, the culture medium was replaced by fresh medium containing no FBS (for 0% FBS group). Cells were treated with 5 μL peptide in 12-point dose response, in culture medium with 0.5 mM IBMX in triplicate for 30 min at 37° C., 5% CO2. cAMP dynamic 2 kit from Cisbio was used to detect cAMP level. Briefly, 25 μL of cAMP detection reagent (1:1:38 of cAMP-d2, Cryptate conjugate, lysis buffer) per well was added and incubated at room temperature for 1 h. For cell negative control wells, cAMP detection reagent without d2 was added. […] Animals Animal care and experimental procedures were approved by the Institutional Animal Care and Use Committee (IACUC) of Calibr at the Scripps Research Institute, strictly following the NIH guidelines for humane treatment of animals. Pharmacokinetics of peptides in mice Female CD-1 mice (n=4 per group) from Charles River Laboratory were fasted overnight and administered 100 μL of each peptide in phosphate buffered saline by intravenous (i.v.) or subcutaneous (s.c.) route. Food was provided to mice after blood collection at 3 h time point. Blood was collected into heparin tubes and centrifuged at 3,000×g for 15 min. The resulting plasma were then stored at −80° C. for peptide concentration determination. The concentrations of peptides in plasma at each time point were determined by in vitro cell based activity assay. Briefly, HEK293-GLP-1R-CRE cells were treated with plasma samples at different time points (5-point dose response, starting from 1:10 to 1:100 dilution of each plasma sample) and incubated for 16 h in DMEM with 10% FBS at 37° C. with 5% CO2, and the firefly luciferase activity was then measured. Simultaneously, the same peptides were used to obtain standard curves and parameters for Bottom, Top, EC50, and Hill Slope. Relative luciferase unit (RLU) for each plasma sample was used to calculate the peptide concentrations in plasma (nmol/L), using parameters derived from the standard curve: (RLU=Bottom+(Top−Bottom)/(1+10^(Log EC50−Conc.)×Hill Slope)) Peptide concentrations in plasma were obtained and plotted against time points to obtain in vivo half-life of each peptide, using WinNonLin Phoenix software (Pharsight Corp, St. Louis, MO). Oral glucose tolerance test (OGTT) Female Charles River CD-1 mice were fasted overnight and then administrated 150 μL of each peptide in PBS (pH=8.2) by i.v. or s.c. route. […]. Body weight and food intake were monitored daily throughout the study. At the end of the experiment, mice were sacrificed, and visceral fat mass was weighed. Collected plasma was used for cholesterol level determination according to the manufacturer's guide (cholesterol assay kit, Abcam, Cambridge, England) and triglyceride level using a triglyceride colorimetric assay kit (Cayman chemical, Ann Arbor, Michigan). Oil red staining Frozen tissue sections of liver were cut at 10 μm and air dried onto the slides. After fixation in 10% formalin for 5 min, the slides were briefly washed with running tap water for 10 min, followed by rinsing with 60% isopropanol. Subsequently, oil red 0 working solution (0.3% oil red 0) was used to stain lipid for 15 min. […]

A short description of data set [5]: Acute oral glucose tolerance test (OGTT) in wild-type mice, 2 h and 96 h post injection. It counts as in vivo, mouse. As to conditions: 96 h after administration; 10 nmol/kg s.c.
Data set [6] in a line: High-fat-diet-induced obesity (DIO) mouse model, chronic administration. As to conditions: DIO mice. The data set is classed as in vivo.
The next data set addresses human GLP-1R (Homo sapiens, UniProt P43220). The data set is described as follows: In vitro receptor activation reporter assay (CRE-Luc, HEK293-GLP-1R-CRE cells; receptor-mediated cAMP synthesis). It counts as cell-based. Also on record: expressed in transfected cells; host or cells: HEK293 (CRE-HEK293, HEK293-GLP-1R-CRE). Conditions: read-out: EC50 GLP1R. (In general: A reporter such as luciferase makes a cellular process visible.)

Sequence of human GLP-1R (P43220 24-463): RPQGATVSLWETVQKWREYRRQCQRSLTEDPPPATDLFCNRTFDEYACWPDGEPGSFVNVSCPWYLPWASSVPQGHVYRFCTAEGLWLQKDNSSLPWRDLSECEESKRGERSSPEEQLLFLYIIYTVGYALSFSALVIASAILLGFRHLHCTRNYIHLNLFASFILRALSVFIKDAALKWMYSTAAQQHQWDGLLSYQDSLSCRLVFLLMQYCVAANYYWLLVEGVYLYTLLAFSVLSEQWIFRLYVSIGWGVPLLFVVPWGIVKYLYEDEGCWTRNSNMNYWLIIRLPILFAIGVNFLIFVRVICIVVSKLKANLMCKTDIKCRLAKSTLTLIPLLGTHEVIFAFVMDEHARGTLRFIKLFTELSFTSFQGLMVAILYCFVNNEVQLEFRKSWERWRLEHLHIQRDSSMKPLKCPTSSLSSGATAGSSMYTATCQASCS
Description for human GIPR: HEK293 cells were infected with lentivirus encoding firefly luciferase gene under the control of cAMP responsive element (CRE) promoter (Qiagen, The Netherlands) and then were selected using 1 μg mL^−1 puromycin (Life Technologies, Carlsbad) for 1 week. The surviving cells (referred to as CRE-HEK293) were expanded and then transfected with a G418 selective mammalian expression plasmid encoding human GLP-1R or GIPR. In brief, GLP-1R or GIPR plasmid was transfected into CRE-HEK293 cells using Lipofectamine 2000 and selected with 400 μg mL^−1 Geneticin (Life Technologies, Carlsbad, CA). Single colony stable cell line overexpressing CRE-luciferase and GLP-1R or GIPR (HEK293-GLP-1R-CRE or HEK293-GIPR-CRE) was then established for in vitro activity assay.
The EC50 of each peptide was determined using GraphPad Prism 6 software (GraphPad, San Diego, CA).

As a reminder, the amount remaining is the share of the starting amount still present when the sample was taken. One may read the Tmax as the time at which the peak concentration occurs. Broadly, the Cmax is the peak of the concentration-time curve. Broadly, the Vd is a proportionality between amount in the body and measured concentration, not a real space. As usually defined, the clearance is the volume of plasma or blood freed of the substance per unit of time. One may read the half-life as the time needed for the level to fall by half in the phase considered. With `CC[C@H](C)[C@H](NC(=O)[C@H](CO)NC(=O)[C@H](Cc1ccc(O)cc1)NC(=O)[C@H](CC(=O)O)NC(=O)[C@H](CO)NC(=O)[C@@H](NC(=O)[C@H](Cc1ccccc1)NC(=O)[C@@H](NC(=O)CNC(=O)[C@H](CCC(=O)O)NC(=O)C(C)(C)NC(=O)[C@@H](N)Cc1ccc(O)cc1)[C@@H](C)O)[C@@H](C)O)C(=O)N[C@@H](Cc1ccc(O)cc1)C(=O)N[C@H]1CCCCNC(=O)CN(C(=O)CCNC(=O)CCOCCOCCOCCNC(=O)CCCCCCCCCCCCCCCCC(=O)O)CC(=O)NCCCC[C@@H](C(=O)N[C@@H](Cc2ccccc2)C(=O)N[C@H](C(=O)N[C@@H](CC(N)=O)C(=O)N[C@@H](Cc2c[nH]c3ccccc23)C(=O)N[C@@H](CC(C)C)C(=O)N[C@@H](CC(C)C)C(=O)N[C@@H](C)C(=O)NCC(=O)NCC(=O)N2CCC[C@H]2C(=O)N[C@@H](CO)C(=O)N[C@@H](CO)C(=O)NCC(=O)N[C@@H](C)C(=O)N2CCC[C@H]2C(=O)N2CCC[C@H]2C(=O)N2CCC[C@H]2C(=O)N[C@@H](CO)C(N)=O)C(C)C)NC(=O)C(C)(C)NC(=O)[C@H](C)NC(=O)[C@H](C)NC(=O)[C@H](CCC(N)=O)NC(=O)[C@H](CCCCN)NC(=O)[C@H](CC(=O)O)NC1=O` [mCMD307, YAibEGT-FTSDY-SIYXD-KQAAAib-XFVNW-LLAGG-PSSGA-PPPS-NH2 (where each X is K) (SEQ ID NO: 39)], the EC50 at human GIPR (Table 8, read-out: EC50 GIPR) was determined as 0.01 nM; at human GIPR (unnumbered table, run 02/19, read-out: EC50 GIPR 02/19), 0.04 nM; at human GLP-1R (Table 7) it was 0.01 nM; on human GLP-1R (Table 8), 0.03 nM. For the same molecule, the share remaining at 24 h stood at 53% in data set [1], 87% in the data set “in vitro [2]”, 92% in “in vitro [3]” (dog) and 92% in the data set “in vitro [3]” (human). Besides, the AUC0-last in data set [4] (Table 6, plasma, route not given) came out at 59200 ± 6810 ng·h/mL. For the same molecule, the Tmax in data set [4] (Table 6, plasma, route not stated in table (s.c. 1 mg kg-1 / i.v. 0.3 mg kg-1 per FIG. 3)) worked out at 2.33 ± 1.16 h. The maximum concentration (Cmax) in data set [4] (mouse, in vivo) is 4710 ± 659 ng/mL. Further, in data set [4] (mouse, in vivo), the distribution volume (Vd) stood at 0.18 ± 0.05 L/kg. For the same molecule, the clearance in data set [4] (mouse, in vivo) stood at 0.28 ± 0.04 mL/min/kg. The half-life in data set [4] (mouse, in vivo) was 11.6 ± 0.85 h. Further, in data set [5], the fasted glucose levels entry is listed as “significantly reduce fasted glucose levels”. The “glucose handling (OGTT) versus vehicle” value in data set [5] is given as “more significant improvements in handling glucose”. In addition, in data set [6] (40 μg/kg, FIG. 5A), the “body weight, food intake” value is reported as “significantly reduced body weight food intake”. In addition, in data set [6] (day 21, versus PBS, FIG. 5B), the fed blood glucose result was “significantly lower than compared to PBS-treated DIO mice”. In addition, the body weight entry in data set [6] (s.c., FIG. 5A) is “steady reduction in body weight”. Besides, the “fasting blood glucose levels” value in data set [6] (s.c., FIG. 5A) is “steady reduction”.
